BindingDB's records for doi:10.7270/Q2KP80J0 (The Scripps Research Institute Molecular Screening Center, 2007)

These compounds were tested against T1, Ephrin type-B receptor 4 (Homo sapiens, UniProt P54760) (assay: blockers of EphB4 ligand binding – biochemical, TNYL-RAW peptide displacement, dose response (AID 835)). Details: not given.
T1 sequence (P54760 whole entry): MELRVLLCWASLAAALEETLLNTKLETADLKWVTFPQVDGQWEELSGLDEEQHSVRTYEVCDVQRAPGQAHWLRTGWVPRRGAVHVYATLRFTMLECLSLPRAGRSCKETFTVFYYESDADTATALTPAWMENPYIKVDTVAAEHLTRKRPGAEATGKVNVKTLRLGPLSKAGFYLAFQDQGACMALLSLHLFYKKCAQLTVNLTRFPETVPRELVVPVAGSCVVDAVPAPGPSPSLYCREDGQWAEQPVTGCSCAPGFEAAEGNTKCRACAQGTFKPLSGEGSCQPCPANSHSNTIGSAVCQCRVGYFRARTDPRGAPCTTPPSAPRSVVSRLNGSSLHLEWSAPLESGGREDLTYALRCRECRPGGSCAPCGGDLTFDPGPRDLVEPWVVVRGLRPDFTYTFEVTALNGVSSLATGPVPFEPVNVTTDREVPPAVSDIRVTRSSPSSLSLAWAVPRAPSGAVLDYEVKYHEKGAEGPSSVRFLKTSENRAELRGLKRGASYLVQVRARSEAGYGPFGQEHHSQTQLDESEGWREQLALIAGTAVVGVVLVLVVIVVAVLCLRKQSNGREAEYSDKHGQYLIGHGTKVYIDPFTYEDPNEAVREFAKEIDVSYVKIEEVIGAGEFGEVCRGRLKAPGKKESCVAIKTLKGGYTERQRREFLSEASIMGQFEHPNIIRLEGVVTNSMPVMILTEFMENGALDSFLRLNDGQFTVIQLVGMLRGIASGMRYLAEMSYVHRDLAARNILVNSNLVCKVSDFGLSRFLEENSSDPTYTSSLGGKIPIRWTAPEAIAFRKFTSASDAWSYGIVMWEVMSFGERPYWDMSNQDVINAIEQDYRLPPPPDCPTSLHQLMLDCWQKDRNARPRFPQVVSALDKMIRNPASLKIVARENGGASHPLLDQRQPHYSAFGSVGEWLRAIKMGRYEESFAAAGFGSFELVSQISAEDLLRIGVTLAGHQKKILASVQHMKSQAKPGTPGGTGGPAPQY

Row | SMILES | IC50 [µM]
1 | CCCc1[nH]nc2c1C(c1ccc(OC)c(Cn3nnc4ccccc43)c1)C(C#N)C(=N)O2 (stereo unspecified) | > 79.4
2 | O=C1CCCc2c1[nH]c1ccccc21 | > 79.4
3 | CC(C)CCn1c(SCCN2CCOCC2)nc2c1c(=O)[nH]c(=O)n2C | > 79.4
4 | CCOc1cccc(-n2c(O)cc(=O)[nH]c2=O)c1 | > 79.4
5 | CC(C)(C)C1CCC2(CC1)SCC(=O)N2c1ccccc1 (stereo unspecified) | > 79.4
6 | CCN1C(=O)C(=CNc2ccc(N3CCOCC3)cc2)C(=O)N(CC)C1=S | > 79.4
7 | Cc1ccc(Cn2c(SCCN3CCCCC3)nc3c2c(=O)n(C)c(=O)n3C)cc1 [1,3-Dimethyl-7-(4-methyl-benzyl)-8-(2-piperidin-1-yl-ethylsulfanyl)-3,7-dihydro-purine-2,6-dione] | > 79.4
8 | Cn1cc(S(=O)(=O)N2CCN(c3ccccc3)CC2)c(=O)n(C)c1=O [1,3-dimethyl-5-(4-phenylpiperazin-1-yl)sulfonyl-pyrimidine-2,4-dione] | > 79.4
9 | C=CCn1c(NCCc2ccccc2)nc2c1c(=O)n(C)c(=O)n2C [1,3-dimethyl-8-(2-phenylethylamino)-7-prop-2-enyl-purine-2,6-dione] | > 79.4
10 | O=C(c1ccc(COc2ccccc2Cl)o1)N1CCN(Cc2ccc3c(c2)OCO3)CC1 [1-(1,3-benzodioxol-5-ylmethyl)-4-{5-[(2-chlorophenoxy)methyl]-2-furoyl}piperazine] | > 79.4
11 | Cn1c(=O)c(NCCO)c2c3c(cccc31)C(=O)c1ccccc1-2 [1-(2-Hydroxy-ethylamino)-3-methyl-3H-naphtho[1,2,3-de]quinoline-2,7-dione] | 8.4
12 | CC(=O)c1ccc(-n2nnnc2SCC(=O)N2CCc3ccccc3C2)cc1 [1-(3,4-dihydro-1H-isoquinolin-2-yl)-2-[[1-(4-ethanoylphenyl)-1,2,3,4-tetrazol-5-yl]sulfanyl]ethanone] | > 79.4
13 | Cc1ccc(N2C(=O)C(O)(C(F)(F)F)C3=C2CC(C)(C)CC3=O)cc1C (stereo unspecified) [1-(3,4-dimethylphenyl)-3-hydroxy-6,6-dimethyl-3-(trifluoromethyl)-3,5,6,7-tetrahydro-1H-indole-2,4-dione] | > 79.4
14 | CCOC(=O)c1sc2nc(C)c3c(c2c1N)CC(C)(C)OC3 [1-Amino-5,8,8-trimethyl-8,9-dihydro-6H-7-oxa-3-thia-4-aza-cyclopenta[a]naphthalene-2-carboxylic acid ethyl ester] | > 79.4
15 | COCCn1c(C)cc(C(=O)COc2nc3ccccc3nc2C)c1C [1-[1-(2-methoxyethyl)-2,5-dimethyl-3-pyrrolyl]-2-[(3-methyl-2-quinoxalinyl)oxy]ethanone] | > 79.4
16 | Cc1cc(C(=O)CSc2nnc(Nc3ccccc3F)s2)c(C)n1CC1CCCO1 (stereo unspecified) [1-[2,5-dimethyl-1-(2-oxolanylmethyl)-3-pyrrolyl]-2-[[5-(2-fluoroanilino)-1,3,4-thiadiazol-2-yl]thio]ethanone] | > 79.4
17 | CC(=O)c1ccc(N2CCN(C(=O)c3ccc(Br)cc3)CC2)c(F)c1 [1-[4-[4-(4-bromobenzoyl)piperazin-1-yl]-3-fluorophenyl]ethanone] | > 79.4
18 | CCOC(=O)C1CCN(S(=O)(=O)Cc2ccccc2)C1=O (stereo unspecified) [1-benzylsulfonyl-2-keto-pyrrolidine-3-carboxylic acid ethyl ester] | > 79.4
19 | CC(c1ccccc1)C1CC(=O)N(C2CCCCC2)C1=O (stereo unspecified) [1-cyclohexyl-3-(1-phenylethyl)-2,5-pyrrolidinedione] | > 79.4
20 | c1coc(-c2nc(-c3ccco3)c(-c3ccco3)nc2-c2ccco2)c1 [2,3,5,6-tetrakis(2-furanyl)pyrazine] | > 79.4
21 | O=C(Nc1cccnc1)C1COc2ccccc2O1 (stereo unspecified) [2,3-Dihydro-benzo[1,4]dioxine-2-carboxylic acid pyridin-3-ylamide] | > 79.4
22 | Cc1cc(C)c(S(=O)(=O)NCc2cn3c(C)csc3n2)cc1C [2,4,5-trimethyl-N-[(3-methyl-6-imidazo[2,1-b]thiazolyl)methyl]benzenesulfonamide] | > 79.4

Row | SMILES | IC50 [µM]
23 | Cc1cc(=O)oc(C)c1C(=O)OCC(=O)c1ccc(Cl)cc1 [2,4-Dimethyl-6-oxo-6H-pyran-3-carboxylic acid 2-(4-chloro-phenyl)-2-oxo-ethyl ester] | > 79.4
24 | CSc1cccc(-n2c(C)cc(C(N)=O)c2C)c1 [2,5-dimethyl-1-(3-methylsulfanylphenyl)pyrrole-3-carboxamide] | > 79.4
25 | Cc1c2cc(O)c(=O)cc-2oc2cc(O)c(O)cc12 [2,6,7-Trihydroxy-9-methyl-xanthen-3-one] | 3.6
26 | CCCc1nnc(NC(=O)CN2C(=O)c3ccccc3S2(=O)=O)s1 [2-(1,1-dioxido-3-oxo-1,2-benzisothiazol-2(3H)-yl)-N-(5-propyl-1,3,4-thiadiazol-2-yl)acetamide] | > 79.4
27 | CCOC(=O)c1cnc(Nc2nc3ccccc3o2)nc1CN1CCN(C)CC1 [2-(1,3-benzoxazol-2-ylamino)-4-[(4-methyl-1-piperazinyl)methyl]-5-pyrimidinecarboxylic acid ethyl ester] | > 79.4
28 | O=C(COC(=O)C(Cc1ccccc1)NC(=O)c1ccco1)NC1CC1 (stereo unspecified) [2-(2-furoylamino)-3-phenyl-propionic acid [2-(cyclopropylamino)-2-keto-ethyl] ester] | > 79.4
29 | O=c1c2ccccc2nc(-c2ccoc2)n1CCc1ccccc1 [2-(3-furanyl)-3-(2-phenylethyl)-4-quinazolinone] | > 79.4
30 | COc1cccc(C(C#N)N2CCOCC2)c1 (stereo unspecified) [2-(3-methoxyphenyl)-2-(4-morpholinyl)acetonitrile] | > 79.4
31 | O=C(CSc1nnc(-c2ccccn2)n1Cc1ccccc1)NC1CCCC1 [2-(4-Benzyl-5-pyridin-2-yl-4H-[1,2,4]triazol-3-ylsulfanyl)-N-cyclopentyl-acetamide] | > 79.4
32 | Cc1c(NC(=O)COC(=O)C(c2ccc(Cl)cc2)C(C)C)c(=O)n(-c2ccccc2)n1C (stereo unspecified) [2-(4-chlorophenyl)-3-methyl-butyric acid [2-keto-2-[(3-keto-1,5-dimethyl-2-phenyl-3-pyrazolin-4-yl)amino]ethyl] ester] | > 79.4
33 | CCCc1nnc(NC(=O)CNc2ccc(F)cc2)s1 [2-(4-fluoroanilino)-N-(5-propyl-1,3,4-thiadiazol-2-yl)acetamide] | > 79.4
34 | Cc1[nH]c2ccccc2c1/C=C1\N=C(c2ccc(F)cc2)OC1=O [2-(4-fluorophenyl)-4-[(2-methyl-1H-indol-3-yl)methylene]-1,3-oxazol-5(4H)-one] | > 79.4
35 | CCCOC(=O)C(C)n1cnc2sc(C)c(C)c2c1=O (stereo unspecified) [2-(4-keto-5,6-dimethyl-thieno[2,3-d]pyrimidin-3-yl)propionic acid propyl ester] | > 79.4
36 | Cc1ccc(-c2nc3cccnc3o2)cc1NC(=O)COc1ccc(C(C)(C)C)cc1 [2-(4-tert-butylphenoxy)-N-(2-methyl-5-[1,3]oxazolo[5,4-b]pyridin-2-ylphenyl)acetamide] | > 79.4
37 | CN(C)c1nccc(Nc2ccccc2)c1C#N [2-(dimethylamino)-4-phenylazanyl-pyridine-3-carbonitrile] | > 79.4
38 | CN(C)c1nc2n(c(=O)n1)CCO2 [2-(dimethylamino)-6,7-dihydro-[1,3]oxazolo[3,2-a][1,3,5]triazin-4-one] | > 79.4
39 | O=C(CN1C(=O)NC2(CCCC2)C1=O)NCCC1=CCCCC1 [2-[2,4-bis(oxidanylidene)-1,3-diazaspiro[4.4]nonan-3-yl]-N-[2-(cyclohexen-1-yl)ethyl]ethanamide] | > 79.4
40 | O=C(NNC(=O)C1CCCCC1)C(=O)NC1CCCCC1 [2-[2-(cyclohexanecarbonyl)hydrazinyl]-N-cyclohexyl-2-oxoacetamide] | > 79.4
41 | Cc1ccc(Nc2cnn(C34CC5CC(CC(CC(=O)O)(C5)C3)C4)c(=O)c2Cl)cc1 [2-[3-[5-chloro-4-(4-methylanilino)-6-oxo-1-pyridazinyl]-1-adamantyl]acetic acid] | > 79.4
42 | CC(=O)Nc1ccc(SCC(=O)OCC(=O)NC(=O)NCc2ccco2)cc1 [2-[(4-acetamidophenyl)thio]acetic acid [2-(2-furfurylcarbamoylamino)-2-keto-ethyl] ester] | > 79.4
43 | Cn1cnnc1SCC(=O)Nc1ccc2nc(SCc3cccc4ccccc34)sc2c1 [2-[(4-methyl-1,2,4-triazol-3-yl)sulfanyl]-N-[2-(naphthalen-1-ylmethylsulfanyl)-1,3-benzothiazol-6-yl]acetamide] | > 79.4
44 | CCCCCCOC(=O)C(C#N)c1nc2ccccc2nc1N1CCN(C)CC1 (stereo unspecified) [2-cyano-2-[3-(4-methyl-1-piperazinyl)-2-quinoxalinyl]acetic acid hexyl ester] | > 79.4

Same assay, conditions: inactive by the depositor's call

Row | SMILES | IC50 [µM]
45 | CCNc1c2c3c(cccc3n(C)c1=O)C(=O)c1ccccc1-2 [1-(ethylamino)-3-methyl-3H-naphtho[1,2,3-de]quinoline-2,7-dione] | 25.7
46 | CCn1c(CSc2nnc3ccccn23)nc2cc(C(=O)O)ccc21 [1-ethyl-2-[([1,2,4]triazolo[4,3-a]pyridin-3-ylthio)methyl]-5-benzimidazolecarboxylic acid] | 20.4
